Measured values: a melting point compilation (Tetko et al.; mined from patent text by program, amines drawn as free bases though some values may be those of a salt)

SMILES	melting point [°C]
Fc1cc(F)c2c(c1)C(n1cc[nH]c1=S)CC2 (single isomer, unassigned; (+))	191 to 193
C[C@]12C[C@H](c3ccc(OCCCCCCl)cc3)[C@@H]3c4ccc(O)cc4CC[C@H]3[C@@H]1CC[C@@H]2O	165
O=C(O)Cc1c(C(=O)c2ccccc2)[nH]c2cccc(Cl)c12	206 to 209
O=C1N(Cc2c[nH]c3ccccc23)CCCC12CCN(c1cnc3ccccc3n1)CC2	109 to 111
Clc1ccc2c(c1)N=C(NCc1cccnc1)c1ccccc1O2	167 to 169
CCCCCCCCCCCCCCCC(=O)CC(=O)OC	40 to 41
CC1CN(c2ccccn2)CCN1Cc1nc2ccccc2[nH]1 (stereo not given)	151 to 153
COc1ccc(-c2ccc(-c3ccc(C)cc3)s2)s1	108 to 111
Nc1nc(-c2ccccc2)c(C(O)CO)c2ncnn12 (stereo not given)	199 to 200
CCOc1c(NCCP(=O)(OCC)OCC)c(=O)c1=O	66 to 68
CCOC(=O)c1c[nH]c2nc(N3CCN(C(=O)OCC)CC3)c(F)cc2c1=O	279 to 281
CC1(C)CC(=O)C2=C(C1)NC1=C(C(=O)CC(C)(C)C1)C2c1cccc(OCc2ccncc2)c1	156 to 158
O=C(O)Cn1cc(-c2ccc3nnn(Cc4ccc5ncccc5c4)c3n2)cn1	> 270
COC(=O)c1cc(Cl)cc(C=O)c1O	132 to 134
CC12CCC(=O)CC1CCC1C2CCC2(C)C(C(N)=O)CCC12 (stereo not given)	259 to 262
COC(=O)C1(C(=O)OC)CCn2c(C(=O)c3ccccc3)cc(Br)c21	109 to 110
CCCCNC(=O)C(C)(C)N=NC(C)(C)C(=O)NCCCC	65
CC(=O)CC(=O)Nc1nnc(C(C)(C)C)s1	166 to 168
O=c1[nH]c2ccccc2n1CCN1CCC(C(c2ccccc2)c2ccccc2)CC1	195 to 196
COCCCOc1ccc(/C=C(\C)C(=O)O)c(Oc2ncc(Cl)cc2Cl)c1	128 to 130
COc1ccc2c(-c3ccccc3F)noc2c1C	105 to 108
Brc1nc2ncnc(NCc3ccccc3)c2[nH]1	233 to 235
CCNC(=O)c1cc(N=C=S)ccc1[Si](C)(C)C	106 to 108
CC(C)N1C(=O)C(N=[N+]=[N-])N=C(c2ccccc2)c2ccccc21 (stereo not given)	178 to 179
Nc1ccc2c(c1)CNCCS2	110 to 111

SMILES	melting point [°C]
CN(C)CCN(C)C(=O)Cn1c(-c2ccc(Cl)cc2)nc2cccnc21	120 to 122
CCCCC(CC)COC(=O)C(C#N)=C1C=C(C)N(CCCC)C(C)=C1 (stereo not given)	69 to 70
CCc1nc2c(N)nc3ccccc3c2n1CC1(O)CCS(=O)(=O)CC1	> 250
COc1cc(N2C(=S)N3CCCCC3C2O)c(F)cc1Cl (stereo not given)	208 to 215
C/C(=C\c1ccc(C=O)cc1)c1ccc2c(c1)C(C)(C)CCO2	102 to 104
FC(F)(F)Oc1ccc(-n2cnc(-c3ccc(/C=N/NC(=S)Nc4ccccc4C4CCCC4)cc3)n2)cc1	213 to 216
Oc1ccc(-c2nc3cc(O)cc(Br)c3o2)c(F)c1	248 to 250
CSc1ccc(C(=S)N2CCCC2)cc1	116 to 118
Cc1ccc2c(c1NC(=O)CC1c3ccccc3Oc3ccccc31)OC(C)C2 (stereo not given)	290 to 291
CC(=O)OCCn1c(=O)c(C#N)c(N2CCN(C(=O)c3cccs3)CC2)c2cccnc21	189
O=C1C(=Cc2ccc(F)cc2)C2C=CC1CC2 (stereo not given)	85 to 86
O=C(O)c1nn(-c2ccc(Cl)cc2Cl)c2c1CCc1c(Br)csc1-2	239 to 242
CCCCOc1c(CNC(=O)OC(C)(C)C)n(CC2CC2)c(=O)c2ccc(O)cc12	164 to 166
CN1C(=O)C2(COc3cc4c(cc32)OCCO4)c2c(-c3cn[nH]c3)cccc21 (stereo not given)	250 to 251
CC(=O)NC[C@H]1CN(c2ccc(C(=O)c3cnc4ccc(Cl)nn34)cc2)C(=O)O1	194 to 196
COc1cc2ncnc(N3CCc4ccccc43)c2cc1OC	162 to 163
Fc1ccc(N2CCN(CCCOc3cccc(-c4nnco4)c3)CC2)cc1	105 to 106
CC(C)n1nc(-c2sc(C(N)=O)nc2-c2ccc(F)cc2)ccc1=O	226 to 228
CC(=O)NCCCC(=O)OC1c2ccccc2C(=O)N1c1ccc2ccc(Cl)nc2n1 (single isomer, unassigned; (+))	200
Cc1cc(C=O)cc(C)c1N	75 to 76
COCC(C)N(C(=O)CCl)c1c(C)cccc1C (stereo not given)	44 to 46
CCOC(=O)c1c(CCCn2cncn2)nc2sc3cnccc3c2c1-c1ccc(OC)c(OC)c1	127 to 129
CC1(C)Oc2cc(Br)c(Br)cc2O1	93 to 94
CC=C(C)C(=O)c1c(O)c2c(c3c(CCC)cc(=O)oc13)OC(C)(C)C=C2	110 to 112
CC1(C)CCC(C)(C)C2=C1CC(Cl)C(C)(O)C2 (stereo not given)	122 to 124

SMILES	melting point [°C]
NC(=S)NNc1ccc(Cl)cc1	200 to 201
O=C(c1ccc(O)cc1)c1cc(Cl)cc(Cl)c1	183
COC(=O)c1cc(C(=O)N2CCC(CO)CC2)c2cc(Cc3ccc(F)cc3)cnc2c1O	161 to 162
Cc1nc(-c2ccccn2)n2cn[nH]c(=O)c12	295 to 297
COc1ccc(Nc2nc(NC(=O)C(C)(C)C)nc3[nH]c4ccccc4c23)cc1	219 to 220
CCC1(CCCCN2CCN(c3ccc(C)c(Cl)c3)CC2)C(=O)Nc2ccccc21 (stereo not given)	103 to 106
COc1cc(CCI)cc(OC)c1	30 to 33
CC(C)NNc1ncnc2c1cnn2C	57
CN1CCC(OC(c2cccc(C#CCN)c2)c2nc3ccccc3[nH]2)CC1 (stereo not given)	101
O=c1nc(-c2ccccn2)sc2ccc(OCCCO)cc12	197 to 198
CCCn1nc2c(NC)nc3ccccc3c2c1N	200 to 201
Oc1cc2c(cc1CNc1ccccc1)OCC2	130 to 131
ON=Cc1ccc(-c2ccc(O)cc2)c2sccc12	230 to 231
O=C(O)CCCOc1cccc(CNC(=O)c2nc3ccccc3c(=O)[nH]2)c1	259 to 260
CCCCC(CC)COc1ccc2c(c1)C(=O)c1ccc(OCC(CC)CCCC)cc1C2=O (stereo not given)	49 to 51
COCC1CN(c2ccc(C3CCN(Cc4ccccc4)CC3)cc2)C(=O)O1 (racemic)	175 to 177
CC1Oc2cc3nc(SCc4ccccn4)[nH]c3cc2O1	155 to 156
O=C(O)CCCSc1ncnc2ncn(Cc3ccc4c(c3)Nc3nccnc3S4)c12	120 to 130
O=C(Nc1ccc(-n2nc(C(F)(F)F)cc2C(F)(F)F)nc1)c1cc(F)c(F)cc1Cl	113 to 116
CCC12CCC(=O)C=C1c1c(cc(OC(C)C(=O)OC3COC(C)(C)O3)c(Cl)c1Cl)C2 (stereo not given)	143 to 145
Cc1cc(-c2ccc(Cl)c(Cl)c2)nc(-c2cccc(-c3cccc(S(N)(=O)=O)c3)c2)n1	206
COc1cc(C(=O)N(C(C)C)C2CCCCC2)ccc1Cn1ccc2ncnc-2c1C	185 to 187
CCOC(=O)C[C@@H]1CCCC[C@H]1n1nc(-c2c(-c3ccccc3)nn3ccccc23)ccc1=O (relative stereo)	151 to 152
COCCOc1cc2ncnc(Nc3ccc(C)c(OC(C)=O)c3)c2cc1OC	180 to 183
CCc1cc2c(s1)SCCc1cc(=O)[nH]nc1-2	256 to 258

SMILES	melting point [°C]
CCCc1c(OCC(O)COc2ccc(CC(=O)O)cc2F)ccc(C(C)=O)c1O (stereo not given)	137 to 138
CCCCCCCCCCCCCCCCCNC(=O)OCC(CO)Oc1ccon1 (stereo not given)	71 to 72
C=CNC(=O)C(C)(Cc1ccccc1)S(=O)(=O)CCCl (stereo not given)	107 to 108
Cc1ccc(S(=O)(=O)c2cc3c(c(S(=O)(=O)NCCc4ccccc4F)c2)CCCC3)cc1	55 to 60
CCCc1c(OCCCS(=O)(=O)c2ccc(C(=O)NCC(=O)OCC)cc2)ccc(C(C)=O)c1O	138 to 140
CC(C)(CNc1ccnc2cc(Cl)ccc12)NCc1ccc(Cl)c(Cl)c1	178 to 179
Cc1ccc(N2C(=O)C(O)=C(C(=O)c3ccc(OC(F)(F)F)cc3)C2c2ccc(Cn3ccnn3)cc2)nn1 (stereo not given)	275
CCOC(=O)c1c(CN2CCCCC2)nc2cc(OC)c(OC)cc2c1-c1ccc(OC)c(OC)c1	148 to 149
CC(C)CCC(=O)OC1c2ccccc2C(=O)N1c1ccc2ccc(F)nc2n1 (stereo not given)	154
Cn1ccc2cc(N3Cc4c(N)cccc4C3=O)ccc21	198 to 203
COc1cc2c(cc1OC)CN(CCNc1ccc(NC(=O)c3cccc4c(=O)c5cccc(OC)c5[nH]c34)cc1)CC2	228 to 234
CC(=O)OC1CSC(Oc2cc(Br)cnc2Cl)C(OC(C)=O)C1OC(C)=O (stereo not given)	143 to 147
c1cncc(-c2ccc3nncn3n2)c1	199 to 200
O=C1Nc2ccccc2C1C(=O)c1cccnc1 (stereo not given)	169 to 170
O=C(O)c1cnc2ccc(Cc3ccccc3)cc2c1	203 to 205
CCCCCCCCCCNC(=O)c1cc(C(=O)NCCCCCCCCCC)cc(N(CCCC(=O)O)CCCC(=O)O)c1	154 to 156
CC(=O)CC(=O)NC1CC1	65 to 66
CCCCCCCCCCCCCCCCN(CCCCCCCCCCCCCCCC)C(CCCCN)C(=O)O (stereo not given)	124 to 125
Nc1nc2[nH]c(CCCCCCc3ccc(C(=O)N[C@@H](CCC(=O)O)C(=O)O)s3)cc2c(=O)[nH]1	183 to 184
Cc1onc(NS(=O)(=O)c2ccccc2-c2ccc(-c3ncco3)cc2Cn2ccc(C(F)(F)F)n2)c1C	89 to 99
O=C(O)C(=O)Nc1cc(Cl)cc(NC(=O)C(=O)O)n1	> 320
Clc1cc(Cl)c2nc(SCc3ccccc3)nn2c1	115 to 116
O=C1c2c(cc(O)c(Cl)c2Cl)CC1C1CCCC1 (stereo not given)	222 to 225
CC#CC1Cc2ccc(C(=O)CCC(=O)N3CCC(c4ccc(Cl)cc4)CC3)cc2CCN1 (stereo not given)	132 to 134
CCOC(=N)CC1(C)OCCc2c1[nH]c1ccccc21 (stereo not given)	140 to 141
